Reference: US8546320B2, “Hsp9O-targeted anti-cancer chimeric peptide” (Kyoto University, priority 2008, dated 2013)
Where a SMILES comes first, the peptide text is derived from it.

Assays:
Caki-1 = type: cell-based, human; conditions: Caki-1; for Anti-cancer activity (% relative to wild-type peptide) / Decrease in cell survival rate (% relative to wild-type peptide): wild-type peptide = 100%
Description: A total of 3×10^3 cells were inoculated per well on a 96 well plate and cultured in a medium containing 10% FBS for 24 hours, and incubated with 100 μl of a peptide having a gradual increase in concentration at 37° C. for 48 to 72 hours. The survival rate of the cells was measured by using WST-8 solution (Cell Count Reagent SF; Nacalai Tesque, Inc.).
Respective variant peptides were subjected to cell viability assay. Specifically, Caki-1 (American Type Culture Collection (Manassas, Va.) was inoculated in a total amount of 3×10^3 cells per well on a 96 well plate (Nunc™); the cells were cultured in a medium (DMEM (Tesque, Inc.) containing 10% FBS (fetal bovine serum; Biowest)) for 24 hours and incubated with 100 μl of a peptide having a gradual increase in concentration at 37° C. for 48 to 72 hours. The cell survival rate was measured by using WST-8 solution (Cell Count Reagent SF; Nacalai Tesque, Inc.) and compared with that of the wild-type Antp-TPR peptide.
Respective variant peptides were subjected to cell viability assay. Specifically, Caki-1 (American Type Culture Collection (Manassas, Va.) was inoculated in a total amount of 3×10^3 cells per well on a 96 well plate (Nunc™); the cells were cultured in a medium containing 10% FBS for 24 hours and incubated with 100 μl of a peptide having a gradual increase in concentration at 37° C. for 48 to 72 hours. The cell survival rate was measured by using WST-8 solution (Cell Count Reagent SF; Nacalai Tesque, Inc.) and compared with that of the wild-type Antp-TPR peptide.

cancer cells = assay: Cell viability assay, summary statements on cancer cells; type: cell-based; conditions: single mutation in TPR or Antp region of Antp-TPR

Row | SMILES | killing effect compared with the wild-type peptide (Caki-1) | Anti-cancer activity (% relative to wild-type peptide) (Caki-1) [%] | Decrease in cell survival rate (% relative to wild-type peptide) (Caki-1) [%] | effect compared with the wild-type protein (summary of mutations) (cancer cells)
1 | CC[C@H](C)[C@H](NC(=O)[C@H](CCCNC(=N)N)NC(=O)[C@H](C)NC(=O)[C@H](Cc1ccc(O)cc1)NC(=O)[C@H](C)NC(=O)[C@H](CCCCN)NC(=O)[C@H](CCCNC(=N)N)NC(=O)[C@H](CCCCN)NC(=O)[C@H](Cc1c[nH]c2ccccc12)NC(=O)[C@H](CCCCN)NC(=O)[C@H](CCSC)NC(=O)[C@H](CCCNC(=N)N)NC(=O)[C@H](CCCNC(=N)N)NC(=O)[C@H](CC(N)=O)NC(=O)[C@H](CCC(N)=O)NC(=O)[C@H](Cc1ccccc1)NC(=O)[C@H](Cc1c[nH]c2ccccc12)NC(=O)[C@@H](NC(=O)[C@H](CCCCN)NC(=O)[C@@H](NC(=O)[C@H](CCC(N)=O)NC(=O)[C@@H](N)CCCNC(=N)N)[C@@H](C)CC)[C@@H](C)CC)C(=O)NCC(=O)N[C@@H](CC(N)=O)C(=O)N[C@@H](CO)C(=O)N[C@@H](Cc1ccc(O)cc1)C(=O)N[C@@H](Cc1ccccc1)C(=O)N[C@@H](CCCCN)C(=O)O [Antp K16R-TPR] (H-RQIKIWFQNRRMKWKRKAYARIGNSYFK-OH; N-terminus and C-terminus assumed) | stronger than that of the wild-type peptide | 110.26 | 709.01 | effect higher than the wild-type protein
2 | CC[C@H](C)[C@H](NC(=O)[C@H](CCCNC(=N)N)NC(=O)[C@H](C)NC(=O)[C@H](Cc1ccc(O)cc1)NC(=O)[C@H](C)NC(=O)[C@H](CCCCN)NC(=O)[C@H](CCCCN)NC(=O)[C@H](CCCCN)NC(=O)[C@H](Cc1c[nH]c2ccccc12)NC(=O)[C@H](CCCCN)NC(=O)[C@H](CS)NC(=O)[C@H](CCCNC(=N)N)NC(=O)[C@H](CCCNC(=N)N)NC(=O)[C@H](CC(N)=O)NC(=O)[C@H](CCC(N)=O)NC(=O)[C@H](Cc1ccccc1)NC(=O)[C@H](Cc1c[nH]c2ccccc12)NC(=O)[C@@H](NC(=O)[C@H](CCCCN)NC(=O)[C@@H](NC(=O)[C@H](CCC(N)=O)NC(=O)[C@@H](N)CCCNC(=N)N)[C@@H](C)CC)[C@@H](C)CC)C(=O)NCC(=O)N[C@@H](CC(N)=O)C(=O)N[C@@H](CO)C(=O)N[C@@H](Cc1ccc(O)cc1)C(=O)N[C@@H](Cc1ccccc1)C(=O)N[C@@H](CCCCN)C(=O)O [Antp M12C-TPR] (H-RQIKIWFQNRRCKWKKKAYARIGNSYFK-OH; N-terminus and C-terminus assumed) | stronger than that of the wild-type peptide | 102.68 | 128.91 | effect higher than the wild-type protein
3 | CC[C@H](C)[C@H](NC(=O)[C@H](CCCNC(=N)N)NC(=O)[C@H](C)NC(=O)[C@H](Cc1ccc(O)cc1)NC(=O)[C@H](C)NC(=O)[C@H](CCCCN)NC(=O)[C@H](CCCCN)NC(=O)[C@H](CCCCN)NC(=O)[C@H](Cc1c[nH]c2ccccc12)NC(=O)[C@H](CCCCN)NC(=O)[C@H](CCSC)NC(=O)[C@H](CCCNC(=N)N)NC(=O)[C@H](CCCNC(=N)N)NC(=O)[C@H](CCC(N)=O)NC(=O)[C@H](CCC(N)=O)NC(=O)[C@H](Cc1ccccc1)NC(=O)[C@H](Cc1c[nH]c2ccccc12)NC(=O)[C@@H](NC(=O)[C@H](CCCCN)NC(=O)[C@@H](NC(=O)[C@H](CCC(N)=O)NC(=O)[C@@H](N)CCCNC(=N)N)[C@@H](C)CC)[C@@H](C)CC)C(=O)NCC(=O)N[C@@H](CC(N)=O)C(=O)N[C@@H](CO)C(=O)N[C@@H](Cc1ccc(O)cc1)C(=O)N[C@@H](Cc1ccccc1)C(=O)N[C@@H](CCCCN)C(=O)O [Antp N9Q-TPR] (H-RQIKIWFQQRRMKWKKKAYARIGNSYFK-OH; N-terminus and C-terminus assumed) | stronger than that of the wild-type peptide | 110.59 | 881.03 | effect higher than the wild-type protein
4 | CC[C@H](C)[C@H](NC(=O)[C@H](CCCNC(=N)N)NC(=O)[C@H](C)NC(=O)[C@H](Cc1ccc(O)cc1)NC(=O)[C@H](C)NC(=O)[C@H](CCCCN)NC(=O)[C@H](CCCCN)NC(=O)[C@H](CCCCN)NC(=O)[C@H](Cc1c[nH]c2ccccc12)NC(=O)[C@H](CCCCN)NC(=O)[C@H](CCSC)NC(=O)[C@H](CCCNC(=N)N)NC(=O)[C@H](CCCNC(=N)N)NC(=O)[C@H](CC(N)=O)NC(=O)[C@H](CCC(N)=O)NC(=O)[C@H](Cc1ccccc1)NC(=O)[C@H](Cc1c[nH]c2ccccc12)NC(=O)[C@@H](NC(=O)[C@H](CCCCN)NC(=O)[C@@H](NC(=O)[C@H](CC(N)=O)NC(=O)[C@@H](N)CCCNC(=N)N)[C@@H](C)CC)[C@@H](C)CC)C(=O)NCC(=O)N[C@@H](CC(N)=O)C(=O)N[C@@H](CO)C(=O)N[C@@H](Cc1ccc(O)cc1)C(=O)N[C@@H](Cc1ccccc1)C(=O)N[C@@H](CCCCN)C(=O)O [Antp Q2N-TPR] (H-RNIKIWFQNRRMKWKKKAYARIGNSYFK-OH; N-terminus and C-terminus assumed) | – | 88.97 | 52.02 | effect similar to that of the wild-type protein
5 | CC[C@H](C)[C@H](NC(=O)[C@H](CCCNC(=N)N)NC(=O)[C@H](C)NC(=O)[C@H](Cc1ccc(O)cc1)NC(=O)[C@H](C)NC(=O)[C@H](CCCCN)NC(=O)[C@H](CCCCN)NC(=O)[C@H](CCCCN)NC(=O)[C@H](Cc1c[nH]c2ccccc12)NC(=O)[C@H](CCCCN)NC(=O)[C@H](CCSC)NC(=O)[C@H](CCCNC(=N)N)NC(=O)[C@H](CCCNC(=N)N)NC(=O)[C@H](CC(N)=O)NC(=O)[C@H](CC(N)=O)NC(=O)[C@H](Cc1ccccc1)NC(=O)[C@H](Cc1c[nH]c2ccccc12)NC(=O)[C@@H](NC(=O)[C@H](CCCCN)NC(=O)[C@@H](NC(=O)[C@H](CCC(N)=O)NC(=O)[C@@H](N)CCCNC(=N)N)[C@@H](C)CC)[C@@H](C)CC)C(=O)NCC(=O)N[C@@H](CC(N)=O)C(=O)N[C@@H](CO)C(=O)N[C@@H](Cc1ccc(O)cc1)C(=O)N[C@@H](Cc1ccccc1)C(=O)N[C@@H](CCCCN)C(=O)O [Antp Q8N-TPR] (H-RQIKIWFNNRRMKWKKKAYARIGNSYFK-OH; N-terminus and C-terminus assumed) | stronger than that of the wild-type peptide | 109.65 | 519.29 | effect similar to that of the wild-type protein
6 | CC[C@H](C)[C@H](NC(=O)[C@H](CCCNC(=N)N)NC(=O)[C@H](C)NC(=O)[C@H](Cc1ccc(O)cc1)NC(=O)[C@H](C)NC(=O)[C@H](CCCCN)NC(=O)[C@H](CCCCN)NC(=O)[C@H](CCCCN)NC(=O)[C@H](Cc1c[nH]c2ccccc12)NC(=O)[C@H](CCCCN)NC(=O)[C@H](CCSC)NC(=O)[C@H](CCCNC(=N)N)NC(=O)[C@H](CCCCN)NC(=O)[C@H](CC(N)=O)NC(=O)[C@H](CCC(N)=O)NC(=O)[C@H](Cc1ccccc1)NC(=O)[C@H](Cc1c[nH]c2ccccc12)NC(=O)[C@@H](NC(=O)[C@H](CCCCN)NC(=O)[C@@H](NC(=O)[C@H](CCC(N)=O)NC(=O)[C@@H](N)CCCNC(=N)N)[C@@H](C)CC)[C@@H](C)CC)C(=O)NCC(=O)N[C@@H](CC(N)=O)C(=O)N[C@@H](CO)C(=O)N[C@@H](Cc1ccc(O)cc1)C(=O)N[C@@H](Cc1ccccc1)C(=O)N[C@@H](CCCCN)C(=O)O [Antp R10K-TPR] (H-RQIKIWFQNKRMKWKKKAYARIGNSYFK-OH; N-terminus and C-terminus assumed) | stronger than that of the wild-type peptide | 110.30 | 727.03 | effect similar to that of the wild-type protein
